Reference: US8759318B2, “Phosphoramidate derivatives of guanosine nucleoside compounds for treatment of viral infections” (Inhibitex, Inc., priority 2009, dated 2014)

Columns and labels:
[1] = system: Yellow Fever Virus strain 17D; experiment: microbe, parasite or virus in culture; format: cell-based; settings: HeLa
in vitro = settings: African green monkey
[2] = system: HCV replicon (Genotype 1b); experiment: Luciferase genotype 1b replicon potency assay; settings: Hepatitis C virus, GETYPE1B, read-out: IC50 μM, HCV genotype 1b luciferase replicon, Renilla luciferase reporter
[3] = Compound cytotoxicity in cytoprotection assay (MTS), MRC-5; settings: human, MRC-5 cells
[4] = Mouse PK: 2'-C-methylguanosine triphosphate levels in liver; settings: 2'-C-methylguanosine triphosphate in mouse liver, 50 mg/kg PO

COc1nc(N)nc2c1ncn2C1O[C@H](COP(=O)(N[C@@H](C)C(=O)OCC(C)(C)C)Oc2cccc3ccccc23)[C@@H](O)[C@@]1(C)O (stereo partly drawn) [Example 20]
EC50 [1]: 418 nM | CC50 (in vitro): > 10000 nM | IC50 [2]: 0.001 µM | CC50 at 7 days [3]: 3080 nM | AUC0-6 [4]: 31940 ng·h/g | AUC0-24 [4]: 59353 ng·h/g
